According to patent publication US20080038429A1, “Taste Improving Substances” (QUEST INTERNATIONAL SERVICES B,V,, priority 2004, published 2008):

Experiments:
[1] = Sensory panel evaluation of tomato soups with reduced salt (Example 9)
Experimental: 10 gram of each composition was mixed with 100 ml hot water to obtain tomato soups. The different soups were tasted and evaluated by a sensory panel.

[2] = Professional panel tasting of 0% fat strawberry yoghurt (Example 4)
Experimental: Four yoghurt samples were prepared: • A: Yoghurt 0% fat+strawberry flavour+sucralose (25%) 300 ppm • B: Yoghurt 0% fat+strawberry flavour+sucralose (25%) 300 ppm+10 ppm N-gluconyl ethanolamme (as prepared in Example 2) • C: Yoghurt 0% fat+strawberry flavour+4% sugar • D: Yoghurt 0% fat+strawberry flavour+4% sugar+10 ppm N-gluconyl ethanolamine (as prepared in Example 2)
(§1) The yoghurts were tasted by a professional panel.

[3] = Professional panel tasting of 3% fat strawberry yoghurt (Example 5); conditions: sample B: Yoghurt 3% fat+strawberry flavour+4% sugar+10 ppm; reference A without: tart, acidic
Experimental: Two yoghurt samples were prepared: • A: Yoghurt 3% fat+strawberry flavour+4% sugar • B: Yoghurt 3% fat+strawberry flavour+4% sugar+10 ppm N-gluconyl ethanolamine (as prepared in Example 2)
as §1

[4] = Professional panel tasting of strawberry ice cream, 8% vegetable fat (Example 6); conditions: sample B: Ice cream (8% vegetable fat)+strawberry flavour+10 ppm, reference A without: sweet, creamy aftertaste
Experimental: Two ice cream (8% vegetable fat) samples were prepared: • A: Ice cream+strawberry flavour • B: Ice cream+strawberry flavour+10 ppm N-gluconyl ethanolamine (as prepared in Example 2)
The ice creams were tasted by a professional panel. There was general agreement among the group on the taste descriptions: • A: sweet, strawberry, creamy aftertaste.

[5] = Professional panel tasting of still lemon beverages (Example 7); conditions: sample C: tap water with sucrose (6.2 brix)+lemon flavour+30 ppm; B (6.2 brix, without): empty, less sweet; A (7 brix): sweet
Experimental: Three still beverages were prepared: • A: Tap water with sucrose (7 brix) and 1.5 g/l of citric acid+lemon flavour • B: Tap water with sucrose (6.2 brix) and 1.5 g/l of citric acid+lemon flavour • C: Tap water with sucrose (6.2 brix)+lemon flavour+N-gluconyl ethanolamine 30 ppm (as prepared in Example 2)
The beverages were tasted by a professional panel.

[6] = Professional panel tasting of standard chicken soup (Example 8); conditions: 7 ppm, versus soup without
Experimental: A standard chicken soup was prepared. The quantity was split in two and to one half 7 ppm of N-gluconyl ethanolamine, as prepared in example 2, was added. The soups were tasted by a professional panel.

[7] = Professional panel tasting of sweet strawberry milk samples of different fat content (Example 10); conditions: for taste description versus same milk without the substance: 6% sucrose, strawberry flavour, 10 ppm
Experimental: Six sweet milk samples, containing 6% sucrose, flavoured with a strawberry flavour were prepared:
1. Zero fat containing milk drink
2. Zero fat containing milk drink+10 ppm gluconyl ethanolamine (as prepared in example 2)
4. 1.5% fat milk+10 ppm gluconyl ethanolamine (as prepared in example 2)
6. Full fat milk+10 ppm gluconyl ethanolamine (as prepared in example 2)
(§2) All samples were tasted by a professional panel. There was general agreement about the differences in taste between the samples.

[8] = Professional panel tasting of instant vegetable soup of different fat content (Example 11)
Experimental: Four samples of standard instant vegetable soup were prepared:
1. Soup containing 2% fat
2. Soup containing 2% fat+7 ppm gluconyl ethanolamine (as prepared in example 2)
3. Soup containing 4% fat
4. Soup containing 4% fat+7 ppm gluconyl ethanolamine (as prepared in example 2)
5. Soup containing 6% fat
6. Soup containing 6% fat+7 ppm gluconyl ethanolamine (as prepared in example 2)
as §2

[9] = Professional panel evaluation of cigarettes with tobacco casings (Example 12); conditions: casing B (2 g per 100 g casing mixture, 1 g/kg tobacco) versus casing A without
Experimental: The following mixtures were used as casings to improve the tobacco taste and improvement of the body of the smoke:
dosage of this mixture is 1 g/kg tobacco
Cigarettes were prepared from both types of tobacco, which were evaluated by a professional panel.

[10] = Professional panel tasting of salted potato chips (Example 13); conditions: potato chips with salt (0.7%) and 100 ppm; reference chips: salty, slightly rancid, oily-greasy and cardboard-like
Description: One sample of potato chips was seasoned with salt (0.7%).
Another sample of potato chips was seasoned with salt (0.7%) and flavoured with 100 ppm
N-gluconyl ethanolamine (as prepared in example 2).
The chips were tasted by a professional panel.
The reference chips were described as salty, slightly rancid, oily-greasy and cardboard-like.

[11] = Professional panel tasting of ketchup (Example 14); conditions: ketchup pH 3.5, 20 ppm; base: strongly acidic, acetic acid-like, flat tomato profile
Experimental: Ketchup was prepared using 506 g of water, 150 g of tomato puree (28-30 Brix), 30 g of modified starch (Colflo 67 ex National Starch), 22 g of salt, 2 g of stabilizer Deltagel CE 1364) and 115 g of vinegar (12% acetic acid in water), by first mixing the dry ingredients, subsequently adding water and stirring until a homogeneous paste was obtained. Tomato puree and vinegar were than added and the mixture was stirred again and heated to a temperature of 95° C. for 1 minute. The mixture was filled off hot and allowed to cool down.
The pH was determined to be 3.5.
Part of the ketchup was mixed with 20 ppm N-gluconyl ethanolamine (as prepared in example 2).
The two ketchups were tasted and compared by a professional panel.
The ketchup base was described as strongly acidic, acetic acid-like, with a flat tomato profile.

[12] = Professional panel tasting of vinaigrette (Example 15); conditions: 30 ppm, original: strongly acidic, acetic acid-like, thin, peaky
Experimental: A vinaigrette was prepared using 815.8 g of water, 100 g of sunflower oil, 12 g of salt, 30 g of sugar, 45 g of vinegar (12% acetic acid), 4 g of xanthan gum and 0.2 g of turmeric powder by mixing all ingredients intensively to obtain a homogeneous emulsion.
To a part of the vinaigrette 30 ppm of N-gluconyl ethanolamine (as prepared in example 2) was added.
Both vinaigrettes were tasted by a professional panel.
The original vinaigrette was described as strongly acidic, acetic acid-like, thin, peaky.

In the case of `O=C(NCCOP(=O)(O)O)[C@H](O)[C@@H](O)[C@H](O)[C@H](O)CO` [N-gluconyl ethanolamine phosphate], the perceived saltiness ([1]; product C (3.5 g salt, 3.5 g Example 3 product per 100 g) versus product A (control, 7 g salt)) is reported as “comparable to that of product A”, the panel preference ([1]; product C: tomato soup powder, 50% reduced salt, 3.5 g of Example 3 product per 100 g, 10 g in 100 ml hot water, versus product B (maltodextrin instead)) is reported as “clearly preferred over product B” and the taste description ([1]; product C: tomato soup, 50% reduced salt, 3.5 g Example 3 product per 100 g powder) is reported as ““more taste”, “more impact”, “more umami”, “more kokumi” and “salivating””.
With `O=C(NCCO)[C@H](O)[C@@H](O)[C@H](O)[C@H](O)CO` [N-gluconyl ethanolamine] the taste description ([2]; sample B: Yoghurt 0% fat+strawberry flavour+sucralose (25%) 300 ppm+10 ppm, reference A without: sweet, bitter, metallic, aftertaste) was “fuller more round and natural taste, more sugar sweetness, significantly less bitter metallic aftertaste”, the taste description ([2]; sample D: Yoghurt 0% fat+strawberry flavour+4% sugar+10 ppm, reference C without: tart, acidic) was “fuller more round and natural taste, more intense sweet” and the taste description [3] was “much fuller, more fatty, more round and natural taste, more intense sweet”. The taste description [4] was “fuller, more round and natural taste, enhanced sweetness and creaminess”, the taste description [5] was “fuller, more round and natural taste, more intense sweet taste than B” and the taste description [6] was “more tasteful, more complete, more body, more fatty”. The “taste comparison with higher-fat milk without the substance” value ([7]; sample 2 (zero fat+10 ppm) versus sample 3 (1.5% fat milk)) was “quite similar and the main difference was that sample 2 and 4 were slightly more sweet”, the “taste description versus same milk without the substance” value ([7]; sample 2: zero fat milk drink, versus sample 1) was “fuller, more round natural taste, more creamy and more sweet” and the “taste comparison with higher-fat milk without the substance” value ([7]; sample 4 (1.5% fat+10 ppm) versus sample 5 (full fat milk)) was “quite similar and the main difference was that sample 2 and 4 were slightly more sweet”. For the same molecule, the “taste description versus same milk without the substance” value ([7]; sample 4: 1.5% fat milk, versus sample 3) was “fuller, more round natural taste, more creamy and more sweet”, the “taste description versus same milk without the substance” value ([7]; sample 6: full fat milk, versus sample 5) was “fuller, more round natural taste, more creamy and more sweet” and the “taste comparison with higher-fat soup without the substance” value ([8]; sample 2 (2% fat+7 ppm) versus sample 3 (4% fat)) was “quite similar and the main difference was that sample 2 and 4 tasted slightly more sweet”. For the same molecule, the “taste description versus same soup without the substance” value ([8]; sample 2: vegetable soup 2% fat+7 ppm, versus sample 1) was “more fatty, more natural, more round and more sweet”, the “taste comparison with higher-fat soup without the substance” value ([8]; sample 4 (4% fat+7 ppm) versus sample 5 (6% fat)) was “quite similar and the main difference was that sample 2 and 4 tasted slightly more sweet” and the “taste description versus same soup without the substance” value ([8]; sample 4: vegetable soup 4% fat+7 ppm, versus sample 3) was “more fatty, more natural, more round and more sweet”. The “taste description versus same soup without the substance” value ([8]; sample 6: vegetable soup 6% fat+7 ppm, versus sample 5) was “more fatty, more natural, more round and more sweet”, the “smoke evaluation of cigarettes” value [9] was “significantly more “body” in the smoke and significantly more “expanding” tobacco smoke” and the taste description [10] was “salty, exhibiting more fatty fullness, and masking of undesired notes of the reference chips”. The taste description [11] was “mildly acidic, less acetic acid-like, exhibiting more sun-ripened tomato character, more fullness” and the taste description [12] was “acidic, more rounded, more full, more fat impression, more smooth”.
